Values quoted from earlier work, collected in patent US20060275223A1, “Erythritol compositions for teeth and gums” (priority 2005, published 2006).

Settings: erythritol comprises 20% of the diet

diarrhea: does not cause diarrhea
SMILES: OC[C@@H](O)[C@@H](O)CO [erythritol]
